Assay results taken from ChEMBL document CHEMBL3627718, “Design, synthesis and preliminary bioactivity studies of imidazolidine-2,4-dione derivatives as Bcl-2 inhibitors” (Bioorg Med Chem, 2015).

Tests used:
[1] = target: Apoptosis regulator Bcl-2 (Homo sapiens, UniProt P10415); assay: Competitive binding affinity to Bcl-2 (unknown origin) preincubated for 30 mins followed by 5-FAM-Bid-BH3 peptide addition measured after 20 mins by fluorescence polarization assay
[2] = test system: K562; assay: Cytotoxicity against human K562 cells assessed as inhibition of cell proliferation after 48 hrs by MTT assay; assay type: functional, cell-based; conditions: K562, 48 h
[3] = test system: PC-3; assay: Cytotoxicity against human PC3 cells assessed as inhibition of cell proliferation after 48 hrs by MTT assay; assay type: functional, cell-based; conditions: PC-3, 48 h
[4] = test system: MDA-MB-231; assay: Cytotoxicity against human MDA-MB-231 cells assessed as inhibition of cell proliferation after 48 hrs by MTT assay; assay type: functional, cell-based; conditions: MDA-MB-231, 48 h
[5] = target: Bcl-2-like protein 1 (Homo sapiens, UniProt Q07817); assay: Competitive binding affinity to Bcl-XL (unknown origin) preincubated for 30 mins followed by 5-FAM-Bid-BH3 peptide addition measured after 20 mins by fluorescence polarization assay
Sequence of Bcl-2-like protein 1 (Q07817 whole entry): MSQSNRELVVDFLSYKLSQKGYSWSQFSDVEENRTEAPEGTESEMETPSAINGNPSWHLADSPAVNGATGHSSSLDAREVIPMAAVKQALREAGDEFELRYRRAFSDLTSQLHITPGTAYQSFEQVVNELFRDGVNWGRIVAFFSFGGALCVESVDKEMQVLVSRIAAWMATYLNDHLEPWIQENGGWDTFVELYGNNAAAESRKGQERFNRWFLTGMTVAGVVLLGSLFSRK

[6] = target: Induced myeloid leukemia cell differentiation protein Mcl-1 (Homo sapiens, UniProt Q07820); assay: Competitive binding affinity to Mcl-1 (unknown origin) preincubated for 30 mins followed by 5-FAM-Bid-BH3 peptide addition measured after 20 mins by fluorescence polarization assay
Sequence of Induced myeloid leukemia cell differentiation protein Mcl-1 (Q07820 whole entry): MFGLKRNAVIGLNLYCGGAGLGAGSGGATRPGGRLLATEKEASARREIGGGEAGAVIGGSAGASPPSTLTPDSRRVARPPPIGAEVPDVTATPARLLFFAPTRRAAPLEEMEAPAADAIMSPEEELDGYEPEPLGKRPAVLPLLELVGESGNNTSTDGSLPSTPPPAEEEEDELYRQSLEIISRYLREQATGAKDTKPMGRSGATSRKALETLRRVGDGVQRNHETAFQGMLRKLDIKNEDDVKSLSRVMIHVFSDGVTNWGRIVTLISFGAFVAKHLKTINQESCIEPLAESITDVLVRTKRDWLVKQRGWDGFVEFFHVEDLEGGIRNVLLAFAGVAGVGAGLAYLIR

Sequence of Apoptosis regulator Bcl-2 (P10415 whole entry): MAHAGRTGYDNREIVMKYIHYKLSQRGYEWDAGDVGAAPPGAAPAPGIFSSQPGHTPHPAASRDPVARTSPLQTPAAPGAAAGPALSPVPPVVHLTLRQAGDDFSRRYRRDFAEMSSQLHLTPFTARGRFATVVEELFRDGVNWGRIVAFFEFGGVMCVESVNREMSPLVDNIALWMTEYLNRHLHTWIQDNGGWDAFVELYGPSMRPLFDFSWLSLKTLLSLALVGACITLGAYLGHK

## Cc1ccc(S(=O)(=O)NC(=O)[C@H](Cc2ccccc2)N2C(=O)/C(=C/c3ccc(-c4ccccc4)cc3)SC2=S)cc1
[1]
  Ki: 0.62 µM
[2]
  IC50: 44.9 µM
[3]
  IC50: 39.8 µM
[4]
  IC50: 35.2 µM

## O=C(Nc1ccc(O)cc1)[C@H](Cc1ccccc1)N1C(=O)N[C@@H](Cc2ccc(-c3ccc(Cl)cc3)cc2)C1=O
[1]
  Ki: > 50 µM

## COC(=O)[C@H](Cc1ccccc1)NC(=O)[C@H](Cc1ccccc1)N1C(=O)N[C@@H](Cc2ccc(-c3ccc(Cl)cc3)cc2)C1=O
[1]
  Ki: > 50 µM

## O=C(O)[C@H](Cc1ccccc1)NC(=O)[C@H](Cc1ccccc1)N1C(=O)N[C@@H](Cc2ccc(-c3ccc(Cl)cc3)cc2)C1=O
[1]
  Ki: > 50 µM

## O=C(O)[C@H](Cc1ccccc1)N1C(=O)N[C@@H](Cc2ccccc2)C1=O
[1]
  Ki: > 50 µM

## O=C(O)[C@H](Cc1ccccc1)N1C(=O)N[C@@H](Cc2ccc(Br)cc2)C1=O
[1]
  Ki: > 50 µM

## O=C(O)[C@H](Cc1ccccc1)N1C(=O)N[C@@H](Cc2ccc(-c3ccc(Cl)cc3)cc2)C1=O
[1]
  Ki: > 50 µM

## Cc1cccc(-c2ccc(C[C@@H]3NC(=O)N([C@@H](Cc4ccccc4)C(=O)O)C3=O)cc2)c1
[1]
  Ki: > 50 µM

## O=C(O)[C@H](Cc1ccccc1)N1C(=O)N[C@@H](Cc2ccc(-c3ccnc(F)c3)cc2)C1=O
[1]
  Ki: > 50 µM

## O=C(NS(=O)(=O)c1ccccc1)[C@H](Cc1ccccc1)N1C(=O)N[C@@H](Cc2ccccc2)C1=O
[1]
  Ki: > 50 µM

## O=C(NS(=O)(=O)c1ccc(Cl)c([N+](=O)[O-])c1)[C@H](Cc1ccccc1)N1C(=O)N[C@@H](Cc2ccccc2)C1=O
[1]
  Ki: > 50 µM

## O=C(NS(=O)(=O)c1ccccc1)[C@H](Cc1ccccc1)N1C(=O)N[C@@H](Cc2ccc(Br)cc2)C1=O
[1]
  Ki: > 50 µM

## O=C(NS(=O)(=O)c1ccc(Cl)c([N+](=O)[O-])c1)[C@H](Cc1ccccc1)N1C(=O)N[C@@H](Cc2ccc(Br)cc2)C1=O
[1]
  Ki: > 50 µM

## O=C(NS(=O)(=O)c1ccccc1)[C@H](Cc1ccccc1)N1C(=O)N[C@@H](Cc2ccc(-c3ccc(Cl)cc3)cc2)C1=O
[1]
  Ki: 19 µM

## Cc1ccc(S(=O)(=O)NC(=O)[C@H](Cc2ccccc2)N2C(=O)N[C@@H](Cc3ccc(-c4ccc(Cl)cc4)cc3)C2=O)cc1
[1]
  Ki: > 50 µM

## O=C(NS(=O)(=O)c1ccc(Cl)c([N+](=O)[O-])c1)[C@H](Cc1ccccc1)N1C(=O)N[C@@H](Cc2ccc(-c3ccc(Cl)cc3)cc2)C1=O
[1]
  Ki: 3.7 µM
[5]
  Ki: 6.1 µM
[6]
  Ki: 2.9 µM
[2]
  IC50: 39.4 µM
[3]
  IC50: 51.7 µM
[4]
  IC50: 70.8 µM

## O=C(NS(=O)(=O)c1cccc([N+](=O)[O-])c1)[C@H](Cc1ccccc1)N1C(=O)N[C@@H](Cc2ccc(-c3ccc(Cl)cc3)cc2)C1=O
[1]
  Ki: 15 µM
[5]
  Ki: > 50 µM
[6]
  Ki: > 50 µM
[2]
  IC50: 49 µM
[3]
  IC50: 73.3 µM
[4]
  IC50: 76.4 µM

## Cc1cccc(-c2ccc(C[C@@H]3NC(=O)N([C@@H](Cc4ccccc4)C(=O)NS(=O)(=O)c4ccccc4)C3=O)cc2)c1
[1]
  Ki: > 50 µM

## Cc1ccc(S(=O)(=O)NC(=O)[C@H](Cc2ccccc2)N2C(=O)N[C@@H](Cc3ccc(-c4cccc(C)c4)cc3)C2=O)cc1
[1]
  Ki: 13 µM
[5]
  Ki: > 50 µM
[6]
  Ki: > 50 µM
[2]
  IC50: 46.9 µM
[3]
  IC50: 56 µM
[4]
  IC50: 63.5 µM

## Cc1cccc(-c2ccc(C[C@@H]3NC(=O)N([C@@H](Cc4ccccc4)C(=O)NS(=O)(=O)c4ccc(Cl)c([N+](=O)[O-])c4)C3=O)cc2)c1
[1]
  Ki: 4.4 µM
[5]
  Ki: 4.7 µM
[6]
  Ki: 2.3 µM
[2]
  IC50: 35.1 µM
[3]
  IC50: 28.4 µM
[4]
  IC50: 57.8 µM

## O=Cc1ccc(-c2ccc(C[C@@H]3NC(=O)N([C@@H](Cc4ccccc4)C(=O)NS(=O)(=O)c4ccc(Cl)c([N+](=O)[O-])c4)C3=O)cc2)cc1
[1]
  Ki: 13 µM
[5]
  Ki: > 50 µM
[6]
  Ki: 9.3 µM
[2]
  IC50: 68.4 µM
[3]
  IC50: 63.8 µM
[4]
  IC50: 83.4 µM

## O=C(NS(=O)(=O)c1ccccc1)[C@H](Cc1ccccc1)N1C(=O)N[C@@H](Cc2ccc(-c3ccnc(F)c3)cc2)C1=O
[1]
  Ki: > 50 µM

## Cc1ccc(S(=O)(=O)NC(=O)[C@H](Cc2ccccc2)N2C(=O)N[C@@H](Cc3ccc(-c4ccnc(F)c4)cc3)C2=O)cc1
[1]
  Ki: > 50 µM

## O=C(NS(=O)(=O)c1ccc(Cl)c([N+](=O)[O-])c1)[C@H](Cc1ccccc1)N1C(=O)N[C@@H](Cc2ccc(-c3ccnc(F)c3)cc2)C1=O
[1]
  Ki: > 50 µM

## COC(=O)[C@@H](NC(=O)[C@H](Cc1ccccc1)N1C(=O)N[C@@H](Cc2ccc(-c3ccc(Cl)cc3)cc2)C1=O)C(C)C
[1]
  Ki: > 50 µM

## CC(C)[C@H](NC(=O)[C@H](Cc1ccccc1)N1C(=O)N[C@@H](Cc2ccc(-c3ccc(Cl)cc3)cc2)C1=O)C(=O)O
[1]
  Ki: > 50 µM

## CC(=O)Oc1ccc(NC(=O)[C@H](Cc2ccccc2)N2C(=O)N[C@@H](Cc3ccc(-c4ccc(Cl)cc4)cc3)C2=O)cc1
[1]
  Ki: > 50 µM
